Data taken from ChEMBL document CHEMBL1201862, “PubChem BioAssay data set” (2004).
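The compound was tested at five concentrations on cells cultured in 96-well plates, with a 48-hour exposure period. At the GI50, growth is halved.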 Calls of active or inactive are those of the source. Cut-off read from the data, not from the text of the source: active = GI50 up to about 1.1 µM and inactive = higher.

What was measured:
Assay in all cases: NCI-60 cell line screen, 48 h
[1] = tested on: MDA-MB-231
[2] = tested on: RPMI-8226
[3] = tested on: SK-OV-3
[4] = tested on: A549
[5] = tested on: HT-29
[6] = tested on: RXF 393
[7] = tested on: SNB-75
[8] = tested on: A498
[9] = tested on: IGROV-1
[10] = tested on: KM12
[11] = tested on: OVCAR-8
[12] = tested on: MDA-N
[13] = tested on: MOLT-4
[14] = tested on: LOX IMVI
[15] = tested on: T47D

Measured: GI50

CCOC(=O)CSC1NC(C(=O)OC)CC1OC (configuration not stated)
inactive: [1] > 100 µM | [2] > 100 µM | [3] > 100 µM | [4] > 100 µM | [5] > 100 µM | [6] > 100 µM | [7] > 100 µM | [8] > 100 µM | [9] > 100 µM | [10] > 100 µM | [11] > 100 µM | [12] > 100 µM | [13] > 100 µM

CNc1ncc(-c2nnnn2-c2ccccc2)c(CN(C)C)n1
inactive: [1] > 100 µM | [2] > 100 µM | [3] > 100 µM | [4] > 100 µM | [5] > 100 µM | [14] > 100 µM | [6] > 100 µM | [7] > 100 µM | [8] > 100 µM | [9] > 100 µM | [10] > 100 µM | [15] > 100 µM | [11] > 100 µM | [13] > 100 µM

COc1ccc(-c2cc(-c3ccc(Nc4ccnc5cc(C(F)(F)F)ccc45)cc3)[nH]c(=O)c2C#N)cc1
inactive: [1] 24.9 µM | [2] > 100 µM | [4] > 100 µM | [5] > 33.2 µM | [14] 16.6 µM | [6] > 32.7 µM | [7] 8.24 µM | [8] > 40 µM | [9] > 81.5 µM | [10] > 100 µM | [15] 45.7 µM | [11] > 77.4 µM | [12] > 34.5 µM | [13] > 100 µM

COc1ccc(-c2cc(-c3ccc(O)cc3O)c(C#N)c(=O)[nH]2)cc1
inactive: [1] 17.3 µM | [2] 15.7 µM | [3] 16.1 µM | [4] 23.4 µM | [5] 18.1 µM | [14] 16.6 µM | [6] 15.9 µM | [10] 22.6 µM | [15] 93.3 µM | [11] 31.9 µM | [12] 11.6 µM | [13] 18.6 µM

Nc1c(-c2nc3ccccc3s2)c2ccc([N+](=O)[O-])cc2c(=O)n1-c1cccc(C(=O)O)c1
inactive: [1] 17.9 µM | [4] 34.9 µM | [5] 86.1 µM | [14] 31.8 µM | [7] 30.8 µM | [10] 40.6 µM | [15] 21 µM | [11] 27.7 µM | [12] 45.1 µM
